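Each compound was tested at five concentrations against cells in 96-well plates for 48 hours. GI50 marks 50% less growth.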 Active and inactive are the calls of the source. Cut-off read from the data, not from the text of the source: active = GI50 up to about 1.1 µM and inactive = higher.
What was measured:
Test in all cases: inhibition of tumour cell growth, NCI panel, 48 h
HL-60 = tested on: HL-60
NCI-H226 = tested on: NCI-H226
ACHN = tested on: ACHN
HT-29 = tested on: HT-29
MCF7 = tested on: MCF7
MDA-MB-435 = tested on: MDA-MB-435
NCI-H23 = tested on: NCI-H23
A498 = tested on: A498
SR = tested on: SR
RPMI-8226 = tested on: RPMI-8226
MDA-MB-231 = tested on: MDA-MB-231
NCI-H522 = tested on: NCI-H522
786-0 = tested on: 786-0
UACC-62 = tested on: UACC-62
SN12C = tested on: SN12C
KM12 = tested on: KM12
CAKI-1 = tested on: CAKI-1
MDA-N = tested on: MDA-N
RXF 393 = tested on: RXF 393
TK-10 = tested on: TK-10
DU-145 = tested on: DU-145
HCT-116 = tested on: HCT-116
IGROV-1 = tested on: IGROV-1
OVCAR-3 = tested on: OVCAR-3
SK-MEL-28 = tested on: SK-MEL-28
SNB-75 = tested on: SNB-75
EKVX = tested on: EKVX
T47D = tested on: T47D
COLO 205 = tested on: COLO 205
MOLT-4 = tested on: MOLT-4
OVCAR-4 = tested on: OVCAR-4
A549 = tested on: A549
SK-MEL-5 = tested on: SK-MEL-5
SF-539 = tested on: SF-539
UO-31 = tested on: UO-31
SF-295 = tested on: SF-295
SW-620 = tested on: SW-620
Malme-3M = tested on: Malme-3M
HOP-62 = tested on: HOP-62
PC-3 = tested on: PC-3
K562 = tested on: K562
OVCAR-8 = tested on: OVCAR-8
BT-549 = tested on: BT-549
OVCAR-5 = tested on: OVCAR-5
SK-MEL-2 = tested on: SK-MEL-2
M14 = tested on: M14
UACC-257 = tested on: UACC-257
U-251 = tested on: U-251
HCT-15 = tested on: HCT-15
NCI/ADR-RES = tested on: NCI/ADR-RES
LOX IMVI = tested on: LOX IMVI
SK-OV-3 = tested on: SK-OV-3
SNB-19 = tested on: SNB-19
CCRF-CEM = tested on: CCRF-CEM
HOP-92 = tested on: HOP-92
HCC 2998 = tested on: HCC 2998
NCI-H460 = tested on: NCI-H460
SF-268 = tested on: SF-268

Measured: GI50

O=C(O)C/C(=C\c1ccco1)C(=O)O
> 100 µM: HCT-15
inactive: HL-60 > 100 µM | NCI-H226 > 100 µM | ACHN > 100 µM | HT-29 > 100 µM | MCF7 > 100 µM | MDA-MB-435 > 100 µM | NCI-H23 > 100 µM | A498 > 100 µM | SR > 100 µM | RPMI-8226 > 100 µM | MDA-MB-231 > 100 µM | NCI-H522 > 100 µM | 786-0 > 100 µM | UACC-62 > 100 µM | SN12C > 100 µM | KM12 > 100 µM | CAKI-1 > 100 µM | MDA-N > 100 µM | RXF 393 > 100 µM | TK-10 > 100 µM | DU-145 > 100 µM | HCT-116 > 100 µM | IGROV-1 > 100 µM | OVCAR-3 > 100 µM | SK-MEL-28 > 100 µM | SNB-75 > 100 µM | EKVX > 100 µM | T47D > 100 µM | COLO 205 > 100 µM | MOLT-4 > 100 µM | OVCAR-4 > 100 µM | A549 > 100 µM | SK-MEL-5 > 100 µM | SF-539 > 100 µM | UO-31 > 100 µM | SF-295 > 100 µM | SW-620 > 100 µM | Malme-3M > 100 µM | HOP-62 > 100 µM | PC-3 > 100 µM | K562 > 100 µM | OVCAR-8 > 100 µM | BT-549 > 100 µM | OVCAR-5 > 100 µM | SK-MEL-2 > 100 µM | M14 > 100 µM | UACC-257 > 100 µM | U-251 > 100 µM | NCI/ADR-RES > 100 µM | LOX IMVI > 100 µM | SK-OV-3 > 100 µM | SNB-19 > 100 µM

Cc1ccc2c(c1)CC1(C2=O)[C@H](c2ccccc2)C2C(=O)c3ccc(C)cc3C2[C@H]1c1ccccc1 (some centres not stated)
inactive: HL-60 43.1 µM | NCI-H226 > 100 µM | ACHN > 100 µM | HT-29 > 100 µM | MCF7 69.8 µM | MDA-MB-435 > 100 µM | CCRF-CEM > 100 µM | NCI-H23 > 100 µM | A498 > 100 µM | SR 36.9 µM | MDA-MB-231 > 100 µM | NCI-H522 > 100 µM | 786-0 > 100 µM | UACC-62 > 100 µM | SN12C > 100 µM | KM12 > 100 µM | CAKI-1 > 100 µM | MDA-N > 100 µM | RXF 393 > 100 µM | TK-10 > 100 µM | DU-145 > 100 µM | HCT-116 24.9 µM | IGROV-1 > 100 µM | OVCAR-3 > 100 µM | SK-MEL-28 > 100 µM | SNB-75 > 100 µM | EKVX > 100 µM | T47D > 100 µM | COLO 205 > 100 µM | MOLT-4 43.8 µM | OVCAR-4 > 100 µM | A549 > 100 µM | SF-539 > 100 µM | UO-31 > 100 µM | SF-295 > 100 µM | SW-620 > 100 µM | HOP-92 > 100 µM | Malme-3M > 100 µM | HOP-62 > 100 µM | PC-3 37.8 µM | K562 30.7 µM | HCC 2998 43 µM | OVCAR-8 > 100 µM | BT-549 > 100 µM | OVCAR-5 > 100 µM | M14 > 100 µM | UACC-257 > 100 µM | NCI-H460 > 100 µM | U-251 > 100 µM | SF-268 > 100 µM | LOX IMVI > 100 µM | SK-OV-3 > 100 µM | SNB-19 > 100 µM
> 100 µM: HCT-15

Source: ChEMBL document CHEMBL1201862, “PubChem BioAssay data set” (2004)
